The test relates to LXRα and/or LXRβ. The test can be described thus: Co-transfection assay (LXRE luciferase reporter, CV-1 cells). The format is cell-based, human. The settings on record: tested as described in Example 33; IC50 or EC50 for LXRα and/or LXRβ, isoform not specified; read-out: activity (IC50 or EC50 for LXR). Put shortly:
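CV-1 cells transiently co-transfected with full-length human LXRα or LXRβ plus RXRα, an LXRE×1-Tk-luciferase reporter and a β-galactosidase control. Compounds incubated 20 h at 37 °C (≤1% DMSO; screen at 10 μM final); luciferase read after lysis. EC50/IC50 from 8-point half-log curves (4 wells per point, ≥3 experiments); efficacy relative to a reference agonist high control and DMSO.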
In general terms: A reporter such as luciferase makes a cellular process visible.

SMILES strings stand for the structures.

On to `Cc1cccc(Cl)c1-c1nc(C(C)(C)O)cn1-c1ccc(-c2ccc(CO)c(S(C)(=O)=O)c2)cc1Cl` [Example 155, 2-(1-(3-chloro-4′-(hydroxy-methyl)-3′-(methylsulfonyl)biphenyl-4-yl)-2-(2-chloro-6-methylphenyl)-1H-imidazol-4-yl)propan-2-ol], for which the IC50 or EC50 (potency, activation or inhibition) was less than 1000 nM.

On to `Cc1cccc(Cl)c1-c1nc(C(C)(C)O)cn1-c1ccc(-c2cccc(S(C)(=O)=O)c2)cc1Cl` [Example 156, 2-(1-(3-chloro-3′-(methyl-sulfonyl)biphenyl-4-yl)-2-(2-chloro-6-methylphenyl)-1H-imidazol-4-yl)propan-2-ol], for which the IC50 or EC50 (potency, activation or inhibition) was less than 1000 nM. For `CC(C)(O)c1cn(-c2ccc(-c3cccc(S(C)(=O)=O)c3)cc2Cl)c(-c2c(F)cccc2F)n1` [Example 157, 2-(1-(3-chloro-3′-(methyl-sulfonyl)biphenyl-4-yl)-2-(2,6-difluorophenyl)-1H-imidazol-4-yl)propan-2-ol] the value was less than 1000 nM; for `CCS(=O)(=O)c1cccc(-c2ccc(-n3cc(C(C)(C)O)nc3-c3c(F)cccc3F)c(Cl)c2)c1` [Example 158, 2-(1-(3-chloro-3′-(ethyl-sulfonyl)biphenyl-4-yl)-2-(2,6-difluorophenyl)-1H-imidazol-4-yl)propan-2-ol], less than 1000 nM. In the case of `CC(C)(O)c1cn(-c2ccc(-c3ccc(CO)c(S(C)(=O)=O)c3)cc2Cl)c(-c2c(F)cccc2F)n1` [Example 159, 2-(1-(3-chloro-4′-(hydroxymethyl)-3′-(methylsulfonyl)biphenyl-4-yl)-2-(2,6-difluorophenyl)-1H-imidazol-4-yl)propan-2-ol], the IC50 or EC50 (potency, activation or inhibition) was less than 1000 nM. The same measure for `Cc1c(Cl)cccc1-c1nc(C(C)(C)O)cn1-c1ccc(-c2ccc(CO)c(S(C)(=O)=O)c2)cc1Cl` [Example 160, 2-(2-(3-chloro-2-methylphenyl)-1-(3-chloro-4′-(hydroxymethyl)-3′-(methylsulfonyl)biphenyl-4-yl)-1H-imidazol-4-yl)propan-2-ol]: less than 1000 nM; for `CC(C)c1ccccc1-c1nc(C(C)(C)O)cn1-c1ccc(-c2cccc(S(C)(=O)=O)c2)cc1Cl` [Example 161, 2-(1-(3-chloro-3′-(methyl-sulfonyl)biphenyl-4-yl)-2-(2-isopropylphenyl)-1H-imidazol-4-yl)propan-2-ol]: less than 1000 nM; for `CC(C)(O)c1cn(-c2ccc(-c3ccc(C(C)(C)O)c(S(C)(=O)=O)c3)cc2Cl)c(-c2ccccc2Cl)n1` [Example 162, 2-(3′-chloro-4′-(2-(2-chlorophenyl)-4-(2-hydroxypropan-2-yl)-1H-imidazol-1-yl)-3-(methylsulfonyl)biphenyl-4-yl)propan-2-ol]: less than 1000 nM.

With `CC(C)(O)c1cn(-c2ccc(-c3ccc(C(C)(C)O)c(S(C)(=O)=O)c3)cc2Cl)c(-c2ccccc2C(F)(F)F)n1` [Example 163, 2-(1-(3-chloro-4′-(2-hydroxypropan-2-yl)-3′-(methylsulfonyl)biphenyl-4-yl)-2-(2-(trifluoromethyl)phenyl)-1H-imidazol-4-yl)propan-2-ol], the IC50 or EC50 (potency, activation or inhibition) is less than 1000 nM. For `CC(C)(O)c1cn(-c2ccc(-c3ccc(C(C)(C)O)c(S(C)(=O)=O)c3)cc2Cl)c(-c2c(F)cccc2Cl)n1` [Example 164, 2-(3′-chloro-4′-(2-(2-chloro-6-fluorophenyl)-4-(2-hydroxypropan-2-yl)-1H-imidazol-1-yl)-3-(methyl-sulfonyl)biphenyl-4-yl)propan-2-ol] the value was 1000 to 10000 nM; for `CCOC(=O)c1ccc(-c2ccc(-n3cc(C(C)(C)O)nc3-c3c(F)cccc3Cl)c(Cl)c2)cc1S(C)(=O)=O` [Example 165, ethyl 3′-chloro-4′-(2-(2-chloro-6-fluorophenyl)-4-(2-hydroxypropan-2-yl)-1H-imidazol-1-yl)-3-(methyl-sulfonyl)biphenyl-4-carboxylate], 1000 to 10000 nM.

`Cc1cc(-c2cccc(S(C)(=O)=O)c2)cc(Cl)c1-n1cc(C(C)(C)O)nc1-c1ccccc1Cl` [Example 168, 2-(1-(3-chloro-5-methyl-3′-(methyl-sulfonyl)biphenyl-4-yl)-2-(2-chlorophenyl)-1H-imidazol-4-yl)propan-2-ol]: the IC50 or EC50 (potency, activation or inhibition) was 1000 to 10000 nM. `CCS(=O)(=O)c1cccc(-c2cc(C)c(-n3cc(C(C)(C)O)nc3-c3ccccc3Cl)c(Cl)c2)c1` [Example 169, 2-(1-(3-chloro-3′-(ethylsulfonyl)-5-methylbiphenyl-4-yl)-2-(2-chlorophenyl)-1H-imidazol-4-yl)propan-2-ol]: the IC50 or EC50 (potency, activation or inhibition) is less than 1000 nM. As to `CCc1cc(-c2cccc(S(C)(=O)=O)c2)ccc1-n1cc(C(C)(C)O)nc1-c1ccccc1Cl` [Example 170, 2-(2-(2-chlorophenyl)-1-(3-ethyl-3′-(methylsulfonyl)biphenyl-4-yl)-1H-imidazol-4-yl)propan-2-ol], the IC50 or EC50 (potency, activation or inhibition) was less than 1000 nM. Turning to `Cc1cc(-c2ccc(CO)c(S(C)(=O)=O)c2)ccc1-n1cc(C(C)(C)O)nc1-c1ccccc1C(F)(F)F` [Example 171], the IC50 or EC50 (potency, activation or inhibition) is less than 1000 nM. For `Cc1cc(-c2ccc(CO)c(S(C)(=O)=O)c2)ccc1-n1cc(C(C)(C)O)nc1-c1c(F)cccc1Cl` [Example 172, 2-(2-(2-chloro-6-fluorophenyl)-1-(4′-(hydroxymethyl)-3-methyl-3′-(methylsulfonyl)biphenyl-4-yl)-1H-imidazol-4-yl)propan-2-ol] the value was less than 1000 nM; for `Cc1cc(-c2ccc(CO)c(S(C)(=O)=O)c2)ccc1-n1cc(C(C)(C)O)nc1-c1cccc(F)c1Cl` [Example 173, 2-(2-(2-chloro-3-fluorophenyl)-1-(4′-(hydroxymethyl)-3-methyl-3′-(methylsulfonyl)biphenyl-4-yl)-1H-imidazol-4-yl)propan-2-ol], less than 1000 nM.

`Cc1cc(-c2ccc(CO)c(S(C)(=O)=O)c2)ccc1-n1cc(C(C)(C)O)nc1-c1c(Cl)cccc1Cl` [Example 174, 2-(2-(2,6-dichlorophenyl)-1-(4′-(hydroxymethyl)-3-methyl-3′-(methylsulfonyl)biphenyl-4-yl)-1H-imidazol-4-yl)propan-2-ol]: the IC50 or EC50 (potency, activation or inhibition) is less than 1000 nM. For `Cc1cc(-c2ccc(CO)c(S(C)(=O)=O)c2)ccc1-n1cc(C(C)(C)O)nc1-c1cccc(Cl)c1C` [Example 175, 2-(2-(3-chloro-2-methylphenyl)-1-(4′-(hydroxymethyl)-3-methyl-3′-(methylsulfonyl)biphenyl-4-yl)-1H-imidazol-4-yl)propan-2-ol] the value was less than 1000 nM; for `Cc1cc(-c2ccc(CO)c(S(C)(=O)=O)c2)ccc1-n1cc(C(C)(C)O)nc1-c1cccc(Cl)c1Cl` [Example 176, 2-(2-(2,3-dichlorophenyl)-1-(4′-(hydroxymethyl)-3-methyl-3′-(methylsulfonyl)biphenyl-4-yl)-1H-imidazol-4-yl)propan-2-ol], less than 1000 nM. The same measure for `Cc1cc(-c2ccc(CO)c(S(C)(=O)=O)c2)ccc1-n1cc(C(C)(C)O)nc1-c1c(C)cccc1Cl` [Example 177]: less than 1000 nM. For `Cc1cc(-c2ccc(CO)c(S(C)(=O)=O)c2)ccc1-n1cc(C(C)(C)O)nc1-c1c(F)cccc1F` [Example 178, 2-(2-(2,6-difluorophenyl)-1-(4′-(hydroxymethyl)-3-methyl-3′-(methylsulfonyl)biphenyl-4-yl)-1H-imidazol-4-yl)propan-2-ol] the value was less than 1000 nM; for `Cc1cc(-c2cccc(S(C)(=O)=O)c2)ccc1-n1cc(C(C)(C)O)nc1-c1cccc(Cl)c1Cl` [Example 179, 2-(2-(2,3-dichlorophenyl)-1-(3-methyl-3′-(methylsulfonyl)biphenyl-4-yl)-1H-imidazol-4-yl)propan-2-ol], less than 1000 nM; for `CCS(=O)(=O)c1cccc(-c2ccc(-n3cc(C(C)(C)O)nc3-c3cccc(Cl)c3Cl)c(C)c2)c1` [Example 180, 2-(2-(2,3-dichlorophenyl)-1-(3′-(ethylsulfonyl)-3-methylbiphenyl-4-yl)-1H-imidazol-4-yl)propan-2-ol], less than 1000 nM. As to `Cc1cc(-c2cccc(S(C)(=O)=O)c2)ccc1-n1cc(C(C)(C)O)nc1-c1c(Cl)cccc1Cl` [Example 181, 2-(2-(2,6-dichlorophenyl)-1-(3-methyl-3′-(methylsulfonyl)biphenyl-4-yl)-1H-imidazol-4-yl)propan-2-ol], the IC50 or EC50 (potency, activation or inhibition) is less than 1000 nM.

As to `CCS(=O)(=O)c1cccc(-c2ccc(-n3cc(C(C)(C)O)nc3-c3c(Cl)cccc3Cl)c(C)c2)c1` [Example 182, 2-(2-(2,6-dichlorophenyl)-1-(3′-(ethylsulfonyl)-3-methylbiphenyl-4-yl)-1H-imidazol-4-yl)propan-2-ol], the IC50 or EC50 (potency, activation or inhibition) is less than 1000 nM. For `Cc1cc(-c2cccc(S(C)(=O)=O)c2)ccc1-n1cc(C(C)(C)O)nc1-c1ccccc1C(F)(F)F` [Example 183, 2-(1-(3-methyl-3′-(methyl-sulfonyl)biphenyl-4-yl)-2-(2-(trifluoromethyl)phenyl)-1H-imidazol-4-yl)propan-2-ol] the value was less than 1000 nM; for `CCS(=O)(=O)c1cccc(-c2ccc(-n3cc(C(C)(C)O)nc3-c3ccccc3C(F)(F)F)c(C)c2)c1` [Example 184, 2-(1-(3′-(ethylsulfonyl)-3-methyl-biphenyl-4-yl)-2-(2-(trifluoro-methyl)phenyl)-1H-imidazol-4-yl)propan-2-ol], less than 1000 nM. The same measure for `Cc1cc(-c2cccc(S(C)(=O)=O)c2)ccc1-n1cc(C(C)(C)O)nc1-c1cccc(F)c1Cl` [Example 185, 2-(2-(2-chloro-3-fluorophenyl)-1-(3-methyl-3′-(methylsulfonyl)biphenyl-4-yl)-1H-imidazol-4-yl)propan-2-ol]: less than 1000 nM.

The record behind these values is patent publication US9000022B2 (Exelixis Patent Company LLC, priority 2005, dated 2015).
